Test results published in publication PMC2374555, “Inhibition of aromatase activity and expression in MCF-7 cells by the chemopreventive retinoid N -(4-hydroxy-phenyl)-retinamide” (British Journal of Cancer, 2000).

Molecular target: T1, aromatase (Homo sapiens, UniProt P11511)
T1 construct: gene CYP19A1; microsomes isolated from JEG-3 human choriocarcinoma cells
T1 sequence (P11511 1-503): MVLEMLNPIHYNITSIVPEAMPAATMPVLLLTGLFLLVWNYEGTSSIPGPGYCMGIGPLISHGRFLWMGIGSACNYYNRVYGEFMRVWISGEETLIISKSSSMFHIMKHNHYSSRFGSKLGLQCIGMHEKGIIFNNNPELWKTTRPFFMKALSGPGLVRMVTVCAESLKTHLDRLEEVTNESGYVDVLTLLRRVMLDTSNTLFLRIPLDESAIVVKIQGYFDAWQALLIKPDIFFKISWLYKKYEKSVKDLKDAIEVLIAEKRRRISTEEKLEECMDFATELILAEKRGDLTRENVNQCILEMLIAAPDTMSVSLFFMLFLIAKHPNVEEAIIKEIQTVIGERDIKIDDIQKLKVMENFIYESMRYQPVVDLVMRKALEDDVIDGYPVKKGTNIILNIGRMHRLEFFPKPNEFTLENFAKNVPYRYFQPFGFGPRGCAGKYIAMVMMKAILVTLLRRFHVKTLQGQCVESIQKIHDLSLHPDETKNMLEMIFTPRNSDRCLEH
Assay: 3H2O release aromatase assay in JEG-3 microsomes, Lineweaver-Burk kinetics; also intact MCF-7 cells
Assay type: biochemical

IC50: 1000 nM
Compound: CC1=C(/C=C/C(C)=C/C=C/C(C)=C/C(=O)Nc2ccc(O)cc2)C(C)(C)CCC1 [4-HPR, N-(4-hydroxyphenyl)-retinamide]
